Measured values reported in patent publication US8852647B2, “Combinations of pyrimethanil and silver compounds” (Janssen Pharmaceutica, NV, priority 2007, dated 2014).
Values after ≈ are worked out from the molar mass of the structure shown. Like-named read-outs stand apart in the source and are kept apart here.

Columns and labels:
Escherichia coli = experiment: Poison Plate Assay (Experiment 1), Escherichia coli; conditions: for MIC-values (minimum inhibitory concentration): ppm total active ingredient, Tryptose Agar, 27° C., evaluation after one week
Rhodoturula rubra = experiment: Poison Plate Assay (Experiment 1), Rhodoturula rubra; conditions: for MIC-values (minimum inhibitory concentration): ppm total active ingredient, Glucose Agar, 22° C., evaluation after two weeks
Aspergillus versicolor = experiment: Poison Plate Assay (Experiment 1), Aspergillus versicolor; conditions: ppm total active ingredient, Glucose Agar, 22° C., evaluation after two weeks; for MIC: Aspergillus versicolor, 336 h
[1] = test system: Streptomyces griseus (g+); experiment: Poison Plate Assay (Experiment 2), Streptomyces griseus; assay type: cell-based; conditions: 120 h, Table 3, pyrimethanil with Microsil™, ppm total active ingredient, Tryptose Agar, 27° C., evaluation after 5 days, read-out: MIC-values (minimum inhibitory concentration)
From the text: [formula] wherein: • QA is the concentration of compound A in ppm, acting alone, which produced an end point (e.g. MIC), • Qa is the concentration of compound A in ppm, in the mixture, which produced an end point (e.g. MIC), • QB is the concentration of compound B in ppm, acting alone, which produced an end point (e.g. MIC), • Qb is the concentration of compound B in ppm, in the mixture, which produced an end point (e.g. MIC). When the Synergy Index is greater than 1.0, antagonism is indicated. When the SI is equal to 1.0, additivity is indicated.
Experiment 2: Poison Plate Assay • Name of the primary compound: —pyrimethanil (I) • Name of the silver salt: —Microsil™ from Avecom (Bloemendalestraat 138, 8730 Beernem, Belgium) • Microsil™ is a suspension of colloidal silver metal particles, produced by and clustered on probiotic bacteria. The diameter of the silver particles varies between 3 to 20 nm. The oxidation state of the silver in Microsil™ is 0 (Ag^0). • Microsil™ is produced as a suspension of finely dispersed colloidal Ag^0 particles, stabilized on a biological carrier molecule, in water. The probiotic carrier exists only as a non-viable and stabilizing biocomponent. • Stock solution: 1000 ppm in DMSO • Test combinations: […]

[2] = Table 1, pyrimethanil with silver nitrate
[3] = Table 2, pyrimethanil with silver perchlorate

O=[N+]([O-])[O-].[Ag+] [silver nitrate]
MIC-values (minimum inhibitory concentration) (Escherichia coli; [2]): 66.67 ppm | MIC-values (minimum inhibitory concentration) (Rhodoturula rubra; [2]): 118.65 ppm | MIC-values (minimum inhibitory concentration) (Aspergillus versicolor; [2]): 118.65 ppm

Cc1cc(C)nc(Nc2ccccc2)n1 [pyrimethanil, 4,6-dimethyl-N-phenyl-2-pyrimidinamine]
MIC (Escherichia coli; Escherichia coli, 168 h, read-out: MIC-values (minimum inhibitory concentration)): 667 µg/mL (≈ 3350 µM) | MIC-values (minimum inhibitory concentration) (Escherichia coli; [3]): 666.67 ppm | MIC (Rhodoturula rubra; 336 h, read-out: MIC-values (minimum inhibitory concentration)): 281 µg/mL (≈ 1410 µM) | MIC-values (minimum inhibitory concentration) (Rhodoturula rubra; [3]): 281.25 ppm | MIC [1]: 66.7 µg/mL | MIC (Aspergillus versicolor; read-out: MIC-values (minimum inhibitory concentration), Table 1, pyrimethanil with silver nitrate): 667 µg/mL (≈ 3350 µM) | MIC (Aspergillus versicolor; read-out: MIC-values (minimum inhibitory concentration), Table 2, pyrimethanil with silver perchlorate): 375 µg/mL (≈ 1880 µM)
